According to PubChem BioAssay (NCI):
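Compound exposure: 48 hours, 5 concentrations, 96-well plates. The concentration for 50% growth inhibition is given as GI50. At the TGI there is no net growth.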

How the values were obtained:
Test in all cases: NCI anticancer screen, dose series, 48 h
786-0 renal = tested on: 786-0 renal
A498 renal = tested on: A498 renal
A549 NSCLC = tested on: A549 NSCLC
ACHN renal = tested on: ACHN renal
BT-549 breast = tested on: BT-549 breast
CAKI-1 renal = tested on: CAKI-1 renal
COLO 205 colon = tested on: COLO 205 colon
DU-145 prostate = tested on: DU-145 prostate
EKVX NSCLC = tested on: EKVX NSCLC
HCC-2998 colon = tested on: HCC-2998 colon
HCT-116 colon = tested on: HCT-116 colon
HCT-15 colon = tested on: HCT-15 colon
HOP-62 NSCLC = tested on: HOP-62 NSCLC
HOP-92 NSCLC = tested on: HOP-92 NSCLC
HS 578T breast = tested on: HS 578T breast
HT29 colon = tested on: HT29 colon
IGROV1 ovarian = tested on: IGROV1 ovarian
KM12 colon = tested on: KM12 colon
LOX IMVI melanoma = tested on: LOX IMVI melanoma
M14 melanoma = tested on: M14 melanoma
MALME-3M melanoma = tested on: MALME-3M melanoma
MCF7 breast = tested on: MCF7 breast
MDA-MB-231 breast = tested on: MDA-MB-231 breast
MDA-MB-435 = tested on: MDA-MB-435
NCI-H226 lung = tested on: NCI-H226 lung
NCI-H23 lung = tested on: NCI-H23 lung
NCI-H460 lung = tested on: NCI-H460 lung
NCI-H522 lung = tested on: NCI-H522 lung
NCI/ADR-RES ovarian = tested on: NCI/ADR-RES ovarian
OVCAR-3 ovarian = tested on: OVCAR-3 ovarian
OVCAR-4 ovarian = tested on: OVCAR-4 ovarian
OVCAR-5 ovarian = tested on: OVCAR-5 ovarian
OVCAR-8 ovarian = tested on: OVCAR-8 ovarian
PC-3 prostate = tested on: PC-3 prostate
RPMI-8226 leukemia = tested on: RPMI-8226 leukemia
RXF 393 renal = tested on: RXF 393 renal
SF-268 CNS = tested on: SF-268 CNS
SF-295 CNS = tested on: SF-295 CNS
SF-539 CNS = tested on: SF-539 CNS
SK-MEL-2 melanoma = tested on: SK-MEL-2 melanoma
SK-MEL-28 melanoma = tested on: SK-MEL-28 melanoma
SK-MEL-5 melanoma = tested on: SK-MEL-5 melanoma
SK-OV-3 ovarian = tested on: SK-OV-3 ovarian
SN12C renal = tested on: SN12C renal
SNB-19 CNS = tested on: SNB-19 CNS
SNB-75 CNS = tested on: SNB-75 CNS
SW-620 colon = tested on: SW-620 colon
T-47D breast = tested on: T-47D breast
TK-10 renal = tested on: TK-10 renal
U251 CNS = tested on: U251 CNS
UACC-257 melanoma = tested on: UACC-257 melanoma
UACC-62 melanoma = tested on: UACC-62 melanoma
UO-31 renal = tested on: UO-31 renal

`CC(=O)OCC1OC(n2ccc(=O)[nH]c2=O)C(OC(C)=O)C1OC(C)=O` (configuration not stated) gave a GI50 (786-0 renal) of over 100 µM, a TGI (786-0 renal) of over 100 µM and a GI50 (A498 renal) of over 100 µM. The TGI (A498 renal) was over 100 µM, the GI50 (A549 NSCLC) was over 100 µM and the TGI (A549 NSCLC) was over 100 µM. The GI50 (ACHN renal) was over 100 µM, the TGI (ACHN renal) was over 100 µM and the GI50 (BT-549 breast) was over 100 µM. For the same compound, the TGI (BT-549 breast) was over 100 µM, the GI50 (CAKI-1 renal) was over 100 µM and the TGI (CAKI-1 renal) was over 100 µM. It also gave a GI50 (COLO 205 colon) of over 100 µM, a TGI (COLO 205 colon) of over 100 µM and a GI50 (DU-145 prostate) of over 100 µM. For the same compound, the TGI (DU-145 prostate) was over 100 µM, the GI50 (EKVX NSCLC) was over 100 µM and the TGI (EKVX NSCLC) was over 100 µM. It also gave a GI50 (HCC-2998 colon) of over 100 µM, a TGI (HCC-2998 colon) of over 100 µM and a GI50 (HCT-116 colon) of over 100 µM. For the same compound, the TGI (HCT-116 colon) was over 100 µM, the GI50 (HCT-15 colon) was over 100 µM and the TGI (HCT-15 colon) was over 100 µM. It also gave a GI50 (HOP-62 NSCLC) of over 100 µM, a TGI (HOP-62 NSCLC) of over 100 µM and a GI50 (HOP-92 NSCLC) of over 100 µM. For the same compound, the TGI (HOP-92 NSCLC) was over 100 µM, the GI50 (HS 578T breast) was over 100 µM and the TGI (HS 578T breast) was over 100 µM. The GI50 (HT29 colon) was over 100 µM, the TGI (HT29 colon) was over 100 µM and the GI50 (IGROV1 ovarian) was over 100 µM. For the same compound, the TGI (IGROV1 ovarian) was over 100 µM, the GI50 (KM12 colon) was over 100 µM and the TGI (KM12 colon) was over 100 µM. The GI50 (LOX IMVI melanoma) was over 100 µM, the TGI (LOX IMVI melanoma) was over 100 µM and the GI50 (M14 melanoma) was over 100 µM. The TGI (M14 melanoma) was over 100 µM, the GI50 (MALME-3M melanoma) was over 100 µM and the TGI (MALME-3M melanoma) was over 100 µM. The GI50 (MCF7 breast) was over 100 µM, the TGI (MCF7 breast) was over 100 µM and the GI50 (MDA-MB-231 breast) was over 100 µM. It also gave a TGI (MDA-MB-231 breast) of over 100 µM, a GI50 (MDA-MB-435) of over 100 µM and a TGI (MDA-MB-435) of over 100 µM. The GI50 (NCI-H226 lung) was over 100 µM, the TGI (NCI-H226 lung) was over 100 µM and the GI50 (NCI-H23 lung) was over 100 µM. The TGI (NCI-H23 lung) was over 100 µM, the GI50 (NCI-H460 lung) was over 100 µM and the TGI (NCI-H460 lung) was over 100 µM. For the same compound, the GI50 (NCI-H522 lung) was over 100 µM, the TGI (NCI-H522 lung) was over 100 µM and the GI50 (NCI/ADR-RES ovarian) was over 100 µM. It also gave a TGI (NCI/ADR-RES ovarian) of over 100 µM, a GI50 (OVCAR-3 ovarian) of over 100 µM and a TGI (OVCAR-3 ovarian) of over 100 µM. For the same compound, the GI50 (OVCAR-4 ovarian) was over 100 µM, the TGI (OVCAR-4 ovarian) was over 100 µM and the GI50 (OVCAR-5 ovarian) was over 100 µM. For the same compound, the TGI (OVCAR-5 ovarian) was over 100 µM, the GI50 (OVCAR-8 ovarian) was over 100 µM and the TGI (OVCAR-8 ovarian) was over 100 µM. It also gave a GI50 (PC-3 prostate) of over 100 µM, a TGI (PC-3 prostate) of over 100 µM and a GI50 (RPMI-8226 leukemia) of over 100 µM. The TGI (RPMI-8226 leukemia) was over 100 µM, the GI50 (RXF 393 renal) was over 100 µM and the TGI (RXF 393 renal) was over 100 µM. For the same compound, the GI50 (SF-268 CNS) was over 100 µM, the TGI (SF-268 CNS) was over 100 µM and the GI50 (SF-295 CNS) was over 100 µM. For the same compound, the TGI (SF-295 CNS) was over 100 µM, the GI50 (SF-539 CNS) was over 100 µM and the TGI (SF-539 CNS) was over 100 µM. The GI50 (SK-MEL-2 melanoma) was over 100 µM, the TGI (SK-MEL-2 melanoma) was over 100 µM and the GI50 (SK-MEL-28 melanoma) was over 100 µM. The TGI (SK-MEL-28 melanoma) was over 100 µM, the GI50 (SK-MEL-5 melanoma) was over 100 µM and the TGI (SK-MEL-5 melanoma) was over 100 µM. It also gave a GI50 (SK-OV-3 ovarian) of over 100 µM, a TGI (SK-OV-3 ovarian) of over 100 µM and a GI50 (SN12C renal) of over 100 µM. The TGI (SN12C renal) was over 100 µM, the GI50 (SNB-19 CNS) was over 100 µM and the TGI (SNB-19 CNS) was over 100 µM. For the same compound, the GI50 (SNB-75 CNS) was over 100 µM, the TGI (SNB-75 CNS) was over 100 µM and the GI50 (SW-620 colon) was over 100 µM. It also gave a TGI (SW-620 colon) of over 100 µM, a GI50 (T-47D breast) of over 100 µM and a TGI (T-47D breast) of over 100 µM. It also gave a GI50 (TK-10 renal) of over 100 µM, a TGI (TK-10 renal) of over 100 µM and a GI50 (U251 CNS) of over 100 µM. For the same compound, the TGI (U251 CNS) was over 100 µM, the GI50 (UACC-257 melanoma) was over 100 µM and the TGI (UACC-257 melanoma) was over 100 µM. It also gave a GI50 (UACC-62 melanoma) of over 100 µM, a TGI (UACC-62 melanoma) of over 100 µM and a GI50 (UO-31 renal) of over 100 µM. For the same compound, the TGI (UO-31 renal) was over 100 µM.

Work on `Clc1ccc2c(N3CCC(CCC4CCN(c5ncnc6cc(Cl)ccc56)CC4)CC3)ncnc2c1` yielded a GI50 (UACC-257 melanoma) of 61 µM.
